From patent publication EP4810476A1, “COCRYSTAL OF CURCUMIN AND L-CARNITINE, AND PREPARATION METHOD THEREFOR AND USE THEREOF” (Cocrystal Health Industry (Zhejiang) Co., Ltd., priority 2023, dated 2025) come the findings set out here.

Data set [1] in a line: Powder dissolution rate test. Format: physicochemical. To be noted: 50 rpm, samples equivalent to 10 mg of curcumin. As for the experimental part: Powder dissolution experiments were conducted in pH 2.0 and pH 4.5 buffer solutions (containing 0.5% Tween 80) at a temperature of 37°C and a rotation speed of 50 rpm. The commercially available curcumin crystals and the powder of the curcumin-L-carnitine cocrystal from Example 3 were sieved through a 100-mesh screen to eliminate the effect of particle size on dissolution. Samples equivalent to 10 mg of curcumin were placed into the sample vessels of the dissolution apparatus, stirred, and samples were taken at 3, 5, 10, 15, 20, 30, 45, 60, 90, and 120 minutes. Concentrations were determined using HPLC. In the pH 2.0 buffer solution, the dissolution of the cocrystal at 3 minutes was about 7 times that of curcumin itself. In the pH 4.5 buffer solution, the dissolution of the cocrystal at 3 minutes was about 8 times that of curcumin itself.

Data set [2] is described as follows: Bioavailability test (plasma pharmacokinetics after intragastric administration). On the set-up: species or system Male SD rats. To be noted: rat, in vivo, 200 mg/kg. As to the method: Male SD rats (weighing 200-300 g) kept under good feeding conditions were used for the experiment. A total of 12 rats were used, evenly divided into 2 groups of 6 rats each. Commercially available curcumin crystals and the cocrystal obtained in Example 3 were uniformly dispersed in soybean oil and administered intragastrically as a suspension. The dosage was 200 mg/kg based on curcumin content. Blood samples (1 mL per time point) were collected from the orbital venous plexus at 20 minutes, 40 minutes, 1 hour, 1.5 hours, 2.5 hours, 4 hours, 6 hours, and 8 hours after administration. Plasma was separated by centrifugation within 0.5 hours of blood collection at 10,000 rpm for 5 minutes. 100 µL of plasma was precisely transferred, added with 50 µL of enzyme buffer solution, incubated at 37°C for 60 min, then added with 0.45 mL of methanol (containing 0.2% acetic acid), vortexed for 10 min, centrifuged at 14000 rpm for 3 min, and the supernatant was collected for HPLC analysis. Table 4. Pharmacokinetic parameters for commercially available curcumin crystals and curcumin-L-carnitine cocrystal.

Turning to “cocrystal of curcumin and L-carnitine [Curcumin-L-carnitine cocrystal]”, the “dissolution of the cocrystal at 3 minutes relative to curcumin itself” value is “about 7 times” in data set [1] (pH 2.0 buffer solution containing 0.5% Tween 80, 37°C) and “about 8 times” in data set [1] (pH 4.5 buffer solution containing 0.5% Tween 80, 37°C). In data set [2], the “maximum plasma concentration of curcumin relative to commercially available curcumin crystals” value is given as 10.7 times. Besides, in data set [2] (po), the Cmax (commonly the maximum level reached in the sampled fluid or tissue) came out at 727.8 ng/mL. Besides, in data set [2] (po), the time to peak (Tmax) (as a rule, the time at which the peak concentration occurs) is given as 20 min. In data set [2] (po, 8 h), this substance displayed an AUC0-8h of 692.5 ng·h/mL.
